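Protocol summary: plate cells (96-well), add compound at 5 concentrations, incubate 48 h, interpolate endpoints linearly. The concentration for 50% growth inhibition is given as GI50.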 Calls of active or inactive are those of the source. No stated cut-off is given here; in the data, active = GI50 up to about 1.1 µM and inactive = higher.
What was measured:
Test in all cases: NCI anticancer screen, dose series, 48 h
SK-MEL-5 = test system: SK-MEL-5
MDA-MB-231 = test system: MDA-MB-231
HOP-62 = test system: HOP-62
PC-3 = test system: PC-3
U-251 = test system: U-251
HCC 2998 = test system: HCC 2998
IGROV-1 = test system: IGROV-1
COLO 205 = test system: COLO 205
DU-145 = test system: DU-145
K562 = test system: K562
T47D = test system: T47D
SW-620 = test system: SW-620
BT-549 = test system: BT-549
NCI-H460 = test system: NCI-H460
Malme-3M = test system: Malme-3M
SK-MEL-2 = test system: SK-MEL-2
HCT-15 = test system: HCT-15
MOLT-4 = test system: MOLT-4
CAKI-1 = test system: CAKI-1
EKVX = test system: EKVX

SMILES	GI50 (SK-MEL-5)	GI50 (MDA-MB-231)	GI50 (HOP-62)	GI50 (PC-3)	GI50 (U-251)	GI50 (HCC 2998)	GI50 (IGROV-1)	GI50 (COLO 205)	GI50 (DU-145)	GI50 (K562)	GI50 (T47D)	GI50 (SW-620)	GI50 (BT-549)	GI50 (NCI-H460)	GI50 (Malme-3M)	GI50 (SK-MEL-2)	GI50 (HCT-15) [µM]	GI50 (MOLT-4)	GI50 (CAKI-1)	GI50 (EKVX)
Cc1ncc([N+](=O)[O-])n1CCNC(=O)CCCCCn1ccnc1[N+](=O)[O-]	> 100 µM (inactive)	> 100 µM (inactive)	> 100 µM (inactive)	> 100 µM (inactive)	> 100 µM (inactive)	> 100 µM (inactive)	> 100 µM (inactive)	43.6 µM (inactive)	> 100 µM (inactive)	> 100 µM (inactive)	> 100 µM (inactive)	> 100 µM (inactive)	> 100 µM (inactive)	> 100 µM (inactive)	> 100 µM (inactive)	> 100 µM (inactive)	> 100	> 100 µM (inactive)	> 100 µM (inactive)	–
COc1cccc(CC(C)NCC(O)c2ccc(O)c(O)c2)c1 (stereo not given)	60.3 µM (inactive)	10.8 µM (inactive)	34.8 µM (inactive)	46.1 µM (inactive)	45.6 µM (inactive)	–	92 µM (inactive)	19 µM (inactive)	31.9 µM (inactive)	94.4 µM (inactive)	25.3 µM (inactive)	33 µM (inactive)	42.7 µM (inactive)	51.6 µM (inactive)	43.5 µM (inactive)	> 100 µM (inactive)	44.6	14 µM (inactive)	35 µM (inactive)	57.3 µM (inactive)
CC(C)(C)N/N=C(\C(=O)NC1=C(Cl)C(=O)c2ccccc2C1=O)C1C=CCS1(=O)=O (stereo not given)	–	14.6 µM (inactive)	–	18.1 µM (inactive)	> 100 µM (inactive)	36.1 µM (inactive)	10 µM (inactive)	16.6 µM (inactive)	11.1 µM (inactive)	> 100 µM (inactive)	19.5 µM (inactive)	> 100 µM (inactive)	12.4 µM (inactive)	6.84 µM (inactive)	2.27 µM (inactive)	11.2 µM (inactive)	7.06	66.7 µM (inactive)	18.4 µM (inactive)	16.5 µM (inactive)
COc1cccc(CCNC(=O)Cc2ccccc2CCO)c1	> 100 µM (inactive)	> 100 µM (inactive)	> 100 µM (inactive)	> 100 µM (inactive)	> 100 µM (inactive)	> 100 µM (inactive)	> 100 µM (inactive)	> 100 µM (inactive)	> 100 µM (inactive)	> 100 µM (inactive)	> 100 µM (inactive)	> 100 µM (inactive)	> 100 µM (inactive)	> 100 µM (inactive)	–	> 100 µM (inactive)	> 100	> 100 µM (inactive)	> 100 µM (inactive)	> 100 µM (inactive)
COC1C=COC2(C)Oc3c(C)c(O)c4c(O)c(c(C5SCCS5)c(O)c4c3C2=O)NC(=O)/C(C)=C\C=CC(C)C(O)C(C)C(O)C(C)C(OC(C)=O)C1C (stereo not given)	7.89 µM (inactive)	5.71 µM (inactive)	10.9 µM (inactive)	4.98 µM (inactive)	3.95 µM (inactive)	–	7.33 µM (inactive)	2.49 µM (inactive)	1.29 µM (inactive)	3.66 µM (inactive)	3.1 µM (inactive)	5.42 µM (inactive)	3.84 µM (inactive)	4.26 µM (inactive)	8.11 µM (inactive)	6.43 µM (inactive)	9.66	2.32 µM (inactive)	9.91 µM (inactive)	–
COc1c(Sc2c(SCSc3cnc4ccccc4c3Sc3cnc4ccccc4c3OC)cnc3ccccc23)cnc2ccccc12	24.8 µM (inactive)	29 µM (inactive)	42.9 µM (inactive)	> 100 µM (inactive)	30.1 µM (inactive)	> 100 µM (inactive)	8.13 µM (inactive)	> 100 µM (inactive)	> 100 µM (inactive)	–	> 100 µM (inactive)	31.6 µM (inactive)	54.5 µM (inactive)	98.2 µM (inactive)	–	> 100 µM (inactive)	84.5	55.8 µM (inactive)	> 100 µM (inactive)	35.7 µM (inactive)
COc1cc(C(=O)/C=C/c2ccc(OCC#N)cc2)cc(OC)c1OC	13.2 µM (inactive)	> 10 µM (inactive)	22.1 µM (inactive)	18.7 µM (inactive)	18 µM (inactive)	16.5 µM (inactive)	38.4 µM (inactive)	20 µM (inactive)	28.1 µM (inactive)	24.5 µM (inactive)	17.3 µM (inactive)	18.9 µM (inactive)	17.7 µM (inactive)	28.8 µM (inactive)	17.4 µM (inactive)	–	19.5	27 µM (inactive)	26.1 µM (inactive)	50.8 µM (inactive)
